Tested on: p53 in A2780 cells
Assay: p53 ELISA in A2780 cells (capacity to preserve p53)
Assay type: cell-based
Conditions: lowest dose giving at least 140% of the p53 value of the control, 16 hours
Method: The capacity of the compounds to preserve p53 in A2780 cells was measured with the p53 enzyme linked immunosorbent assay. The p53 assay is a “sandwich” enzyme immunoassay employing two polyclonal antibodies. A polyclonal antibody, specific for the p53 protein, has been immobilized onto the surface of the plastic wells. Any p53 present in the sample to be assayed will bind to the capture antibody. The biotinylated detector polyclonal antibody also recognizes p53 protein, and will bind to any p53, which has been retained by the capture antibody. The detector antibody, in turn, is bond by horseradish peroxidase-conjugated streptavidin. The horseradish peroxidase catalyses the conversion of the chromogenic substrate o-phenylene diamine, the intensity of which is proportional to the amount of p53 protein bond to the plate. The colored reaction product is quantified using a spectrophotometer. Quantitation is achieved by the construction of a standard curve using known concentrations of purified recombinant HIS tagged p53 protein (see example C.1.).
A2780 cells (ATCC) were cultivated in RPMI 1640 supplemented with 10% fetal calf serum (FCS), 2 mM L-glutamine and gentamycin at 37° C. in a humidified incubator with 5% CO2.
A2780 cells were seeded at 20.000 cells per well in a 96 well plate, cultured for 24 hours and treated with compound for 16 hours at 37° C. in a humidified incubator. After incubation, the cells were washed once with phosphate-buffered saline and 30 μl, per well, low salt RIPA buffer (20 mM tris, pH7.0, 0.5 mM EDTA, 1% Nonidet P40, 0.5% DOC, 0.05% SDS, 1 mM PMSF, 1 μg/ml aprotinin and 0.5 μ/ml leupeptin) was added. Plates were placed on ice for 30 minutes to complete the lysis. p53 protein was detected in de lysates by using the sandwich ELISA, described below.
High binding polystyrene EIA/RIA 96 well plates (Costar 9018) were coated with the capture antibody pAb1801 (Abcam ab28-100) at a concentration of 1 μg/ml in coating buffer (0.1 M NaHCO3 pH8.2), 50 μl per well. The antibody was allowed to adhere overnight at 4° C. Coated plates were washed once with phosphate-buffered saline (PBS)/0.05% Tween 20 and 300 μl of blocking buffer (PBS, 1% bovine serum albumins (BSA)) was added, for an incubation period of 2 hours at room temperature. Dilutions of purified recombinant HIS tagged p53 protein, ranging from 3-200 ng/ml, were made in blocking buffer and used as standards.
Plates were washed twice with PBS/0.05% Tween 20 and blocking buffer or standards were added at 80 μl/well. To the standards, 20 μl of lysis buffer was added. The samples were added to the other wells at 20 μl lysate/well. After an overnight incubation at 4° C., plates were washed twice with PBS/0.05% Tween 20. Aliquots of 100 μl secondary polyclonal antibody p53(FL-393) (Tebubio, sc-6243) at a concentration of 1 μg/ml in blocking buffer were added to each well and allowed to adhere for 2 hours at room temperature. Plates were washed three times with PBS/0.05% Tween 20. Detection antibody anti-rabbit HRP (sc-2004, Tebubio) at 0.04 μg/ml in PBS/1% BSA was added and incubated for 1 hour at room temperature. Plates were washed three times with PBS/0.05% Tween 20 and 100 μl of substrate buffer was added (substrate buffer was prepared shortly before use by adding 1 tablet of 10 mg o-phenylene diamine (OPD) from Sigma and 125 μl 3% H2O2 to 25 ml OPD buffer: 35 mM citric acid, 66 mM Na2HPO4, pH5.6). After 5 to 10 minutes, colour reaction was stopped by adding 50 μl stop buffer (1 M H2SO4) per well. The absorbance at dual wavelengths of 490/655 nm was measured using a Biorad micro plate reader and the results were then analyzed.
For each experiment, controls (containing no drug) and a blank incubation (containing no cells or drugs) were run in parallel. The blank value was subtracted from all control and sample values. For each sample, the value of p53 (in absorbance units) was expressed as the percentage of the value for p53 present in the control. […]

| Compound | A2780 p53-elisa LAD (listed as drawing 35) | A2780 p53-elisa LAD (listed as drawing 36) |
| --- | --- | --- |
| Cc1cc(Nc2ccnc3c2CCC3O)ccc1NCCc1c[nH]c2c(C)cccc12 (single isomer, unassigned) [Compound No. 1] | 3.00E-08 | – |
| Cc1cc(Nc2ccnc3c2CCC3O)ccc1NCCc1c[nH]c2c(C)cccc12 (single isomer, unassigned) [Compound No. 2] | – | 1.00E-07 |

— patent US8853406B2, “Substituted phenylenediamines as inhibitors of the interaction between MDM2 and P53” (Janssen Pharmaceutica NV, priority 2007, dated 2014)
